Assay results taken from ChEMBL document CHEMBL1129851, “Synthesis and structural optimization of 7-(3,3-disubstituted-1-pyrrolidinyl)-1-cyclopropyl-6-fluoro-1,4-dihydro-8-methoxy-4-oxo-3-quinolinecarboxylic acids as antibacterial agents” (1997).
In brackets after ≈: the same amount, converted by molar mass.

Key:
Assay type in all cases: functional
[1] = test system: Staphylococcus aureus; test: Minimum inhibitory concentration vitro against Staphylococcus aureus No.88
[2] = test system: Enterococcus faecalis; test: Minimum inhibitory concentration in vitro against Enterococcus faecalis LS-101
[3] = test system: Escherichia coli; test: Minimum inhibitory concentration in vitro against Escherichia coli NIHJ JC-2
[4] = test system: Streptococcus pneumoniae; test: Minimum inhibitory concentration in vitro against Streptococcus pneumoniae Type III
[5] = test system: Staphylococcus aureus; test: Minimum inhibitory concentration in vitro against Staphylococcus aureus FDA 209P

Row | SMILES | MIC [1] | MIC [2] | MIC [3] | MIC [4] | MIC [5]
1 | COc1c(N2CCC(CN)(CF)C2)c(F)cc2c(=O)c(C(=O)O)cn(C3CC3)c12 (stereo not drawn) | 1.56 µg/mL (≈ 3.83 µM) | 0.05 µg/mL (≈ 0.123 µM) | 0.05 µg/mL (≈ 0.123 µM) | 0.05 µg/mL (≈ 0.123 µM) | 0.012 µg/mL (≈ 0.0295 µM)
2 | COc1c(N2CC[C@@](CN)(CF)C2)c(F)cc2c(=O)c(C(=O)O)cn(C3CC3)c12 | 0.78 µg/mL (≈ 1.91 µM) | 0.05 µg/mL (≈ 0.123 µM) | 0.05 µg/mL (≈ 0.123 µM) | 0.05 µg/mL (≈ 0.123 µM) | 0.012 µg/mL (≈ 0.0295 µM)
3 | COc1c(N2CCOC(CN)C2)c(F)cc2c(=O)c(C(=O)O)cn(C3CC3)c12 (stereo not drawn) | 6.25 µg/mL (≈ 16 µM) | 0.05 µg/mL (≈ 0.128 µM) | 0.2 µg/mL (≈ 0.511 µM) | 0.2 µg/mL (≈ 0.511 µM) | 0.025 µg/mL (≈ 0.0639 µM)
4 | NCC1CN(c2c(F)cc3c(=O)c(C(=O)O)cn(C4CC4)c3c2Cl)CCO1 (stereo not drawn) |  |  | 0.1 µg/mL (≈ 0.253 µM) | 0.1 µg/mL (≈ 0.253 µM) | 0.012 µg/mL (≈ 0.0303 µM)
5 | NCC1CN(c2c(F)cc3c(=O)c(C(=O)O)cn(C4CC4)c3c2F)CCO1 (stereo not drawn) |  |  | 0.1 µg/mL (≈ 0.264 µM) | 0.1 µg/mL (≈ 0.264 µM) | 0.025 µg/mL (≈ 0.0659 µM)
6 | CNCC1(CF)CCN(c2c(F)cc3c(=O)c(C(=O)O)cn(C4CC4)c3c2OC)C1 (stereo not drawn) | 1.56 µg/mL (≈ 3.7 µM) | 0.05 µg/mL (≈ 0.119 µM) | 0.1 µg/mL (≈ 0.237 µM) | 0.2 µg/mL (≈ 0.475 µM) | 0.025 µg/mL (≈ 0.0593 µM)
7 | O=C(O)c1cn(C2CC2)c2cc(N3CCNCC3)c(F)cc2c1=O [CIPROFLOXACIN] | > 100 µg/mL | 0.2 µg/mL (≈ 0.604 µM) |  | 0.39 µg/mL (≈ 1.18 µM) | 0.2 µg/mL (≈ 0.604 µM)
8 | CC1COc2c(N3CCN(C)CC3)c(F)cc3c(=O)c(C(=O)O)cn1c23 (stereo not drawn) [OFLOXACIN] | 50 µg/mL (≈ 138 µM) | 0.39 µg/mL (≈ 1.08 µM) | 0.05 µg/mL (≈ 0.138 µM) | 0.78 µg/mL (≈ 2.16 µM) | 0.2 µg/mL (≈ 0.553 µM)
9 | C[C@@H]1CN(c2c(F)c(N)c3c(=O)c(C(=O)O)cn(C4CC4)c3c2F)C[C@H](C)N1 [SPARFLOXACIN] | 12.5 µg/mL (≈ 31.9 µM) | 0.1 µg/mL (≈ 0.255 µM) | 0.025 µg/mL (≈ 0.0637 µM) | 0.1 µg/mL (≈ 0.255 µM) | 0.05 µg/mL (≈ 0.127 µM)
10 | NC1CCN(c2nc3c(cc2F)c(=O)c(C(=O)O)cn3-c2ccc(F)cc2F)C1 (stereo not drawn) [TOSUFLOXACIN] | > 25 µg/mL | 0.05 µg/mL (≈ 0.124 µM) | 0.025 µg/mL (≈ 0.0618 µM) | 0.1 µg/mL (≈ 0.247 µM) | 0.025 µg/mL (≈ 0.0618 µM)

The remaining molecules from weak to strong by MIC [3], led by results:

Row | MIC [1] | MIC [2] | MIC [3] | MIC [4] | MIC [5] | SMILES
11 | 50 µg/mL (≈ 123 µM) | 0.2 µg/mL (≈ 0.493 µM) | 0.78 µg/mL (≈ 1.92 µM) | 0.39 µg/mL (≈ 0.962 µM) | 0.1 µg/mL (≈ 0.247 µM) | COc1c(N2CCC(CN)(CO)C2)c(F)cc2c(=O)c(C(=O)O)cn(C3CC3)c12 (stereo not drawn)
12 | 50 µg/mL (≈ 128 µM) | 0.2 µg/mL (≈ 0.511 µM) | 0.39 µg/mL (≈ 0.996 µM) | 0.2 µg/mL (≈ 0.511 µM) | 0.1 µg/mL (≈ 0.255 µM) | COc1c(N2CCC(O)(CN)C2)c(F)cc2c(=O)c(C(=O)O)cn(C3CC3)c12 (stereo not drawn)
13 |  |  | 0.39 µg/mL (≈ 1.08 µM) | 0.39 µg/mL (≈ 1.08 µM) | 0.2 µg/mL (≈ 0.553 µM) | NCC1CN(c2cc3c(cc2F)c(=O)c(C(=O)O)cn3C2CC2)CCO1 (stereo not drawn)
14 | 6.25 µg/mL (≈ 14.4 µM) | 0.2 µg/mL (≈ 0.459 µM) | 0.39 µg/mL (≈ 0.896 µM) | 0.2 µg/mL (≈ 0.459 µM) | 0.1 µg/mL (≈ 0.23 µM) | COc1c(N2CCC(CF)(CN(C)C)C2)c(F)cc2c(=O)c(C(=O)O)cn(C3CC3)c12 (stereo not drawn)
15 | 1.56 µg/mL (≈ 4.01 µM) | 0.05 µg/mL (≈ 0.128 µM) | 0.1 µg/mL (≈ 0.257 µM) | 0.05 µg/mL (≈ 0.128 µM) | 0.012 µg/mL (≈ 0.0308 µM) | COc1c(N2CCC(C)(CN)C2)c(F)cc2c(=O)c(C(=O)O)cn(C3CC3)c12 (stereo not drawn)
16 | 3.13 µg/mL (≈ 7.68 µM) | 0.05 µg/mL (≈ 0.123 µM) | 0.05 µg/mL (≈ 0.123 µM) | 0.05 µg/mL (≈ 0.123 µM) | 0.012 µg/mL (≈ 0.0295 µM) | COc1c(N2CC[C@](CN)(CF)C2)c(F)cc2c(=O)c(C(=O)O)cn(C3CC3)c12
